In paper PMC12419922, “Myristoylated Cathelicidin-DM Fused With ANG1-7: A Novel Self-Assembling Antimicrobial Peptide for the Treatment and Mechanism of Diabetic Infected Wounds” (Journal of Diabetes Research, 2025):
Like-named read-outs stand apart in the source and are kept apart here. Where no end group is shown, it is not given here. The star is where a group is joined. Myristoyl = CCCCCCCCCCCCCC(=O)*

Columns and labels:
[1] = system: mouse red blood cell suspension; conditions: 37°C, 60 min, OD 590 nm, 0.1% Triton X-100 positive control
Experimental: In order to evaluate the hemolytic activity of self-assembled peptides on normal mammalian cells, fresh blood of normal mice was collected, and heparin sodium was anticoagulated and stored. After centrifugation at 4°C and 3000 rpm for 10 min, the precipitate was collected, washed, and centrifuged with normal saline for three times and then resuspended at 10% (v/v). We mix 100 μL of different concentrations of drugs with 100 μL of mouse red blood cell suspension, incubate in a constant temperature oscillation incubator at 37°C for 60 min, then take out and centrifuge according to the above setting, absorb 100 μL of supernatant, put it in a 96-well cell culture plate, and measure the OD value at 590 nm by M200 full-band enzyme-labeled instrument (Infinite M200 Pro, Switzerland). Then, 100 μL of 0.1% Triton X-100 solution was used as a positive control and PBS as a negative control. According to the formula, hemolysis (%) = (experimental group OD value − negative control OD value)/(positive control OD value − negative control OD value) × 100%.

HUVECs [2] = assay: Transwell migration assay; format: cell-based, human; conditions: HUVECs in HG + LPS; p < 0.01
Experimental: HUVECs (1 × 10^4 cells/well) were incubated in the upper chamber of an 8-μm pore size (Corning, New York) and placed into a 24-well plate for 16 h at 37°C with 5% CO2. Cells adhering to the top surface of the Transwell membrane were carefully removed using a cotton swab. Cells that had migrated to the bottom of the chamber were fixed with 4% paraformaldehyde for 30 min and stained with 0.1% CV for 20 min. Finally, the chambers were placed on slides and imaged using an inverted fluorescence microscope (ThermoFish EVOS, United States). The number of cells in five random fields of each chamber was counted to determine migration ability.

[3] = system: PI3K/AKT/eNOS signaling pathway, MasR in HUVECs; assay: Western blot of PI3K/AKT/eNOS signaling pathway and MasR; format: cell-based, human
Experimental: After the specified treatments, HUVECs were harvested using a cell scraper and lysed in cell lysis buffer (Wuhan Boster Biological Engineering Co., Ltd.) for 30 min at 4°C. Total protein was quantified using a BCA protein assay kit. Lysate (20 μg) from each sample was separated by 10% sodium dodecyl sulfate–polyacrylamide gel electrophoresis (SDS-PAGE) and then transferred to a polyvinylidene fluoride (PVDF) membrane. The membrane was blocked with a fresh blocking buffer containing 5% skim milk in Tris-buffered saline with 0.1% Tween 20 (TBS-T) for 2 h at room temperature and then incubated with primary antibodies against AKT (1:1000 dilution, #4691, Cell Signaling Technology), p-AKT (1:2000 dilution, #4060, Cell Signaling Technology), PI3K (1:1000 dilution, ab191606, Abcam), p-PI3K (1:1000 dilution, ab278545, Abcam), eNOS (1:1000 dilution, #32027, Cell Signaling Technology), p-eNOS (1:1000 dilution, ab215717, Abcam), and Mas (1:1000 dilution, #85003-1-RR, Proteintech) overnight at 4°C with shaking. The membrane was washed with TBS-T for 15 min and then incubated with horseradish peroxidase (HRP)–conjugated goat anti-rabbit secondary antibody (Wuhan Sanying Biotechnology Co., Ltd.) at a 1:2000 dilution in TBS-T and 3% skim milk for 90 min at room temperature. The membrane was washed three times with TBS-T, each for 15 min, and the immune reaction signals were detected using an ECL detection method. Protein bands were detected using a chemiluminescent gel imaging system (Bio-Rad Lab, China). Protein expression was quantitatively analyzed using ImageJ software (National Institutes of Health, Bethesda, MD, United States), and the experiment was repeated three times.

HUVECs [4] = assay: ELISA of IL-6 and TNF-α in culture supernatant; format: cell-based, human; conditions: HG + LPS 24 h
Experimental: The HUVECs were seeded at 1 × 10^4 cells/well and cultured in 96-well plates. Following the indicated treatments, the levels of IL-6 and TNF-α in culture media were analyzed using ELISA according to the method of the kit. The experiments were repeated three times.

[5] = system: human skin fibroblasts (HSFs); conditions: 1.56 μg/mL (lowest concentration), 24 h, CCK8
Experimental: (§1) Human keratinocyte cells (HaCaTs) and human skin fibroblasts (HSFs) were seeded in 96-well plates at a density of 5000 cells per well. After overnight culture, different concentrations of AMP MYR-DM-ANG1-7 were added to the cells, and then, the cells were cultured for 24 h. Untreated cells were supplemented with fresh culture medium as the control group. Subsequently, 10% by volume of CCK8 solution (5 mg/mL) was added to each well.
(§2) After incubation for 1 h, the absorbance in each well was measured at 450 nm using an M200 full-band microplate reader (Infinite M200 PRO, Switzerland). Finally, the cell viability was calculated relative to the control groups.

[6] = system: Human keratinocyte cells (HaCaTs); conditions: 50 μg/mL (highest concentration), 24 h, CCK8
Experimental: as §1, §2

HUVECs [7] = assay: Mitochondrial membrane potential, JC-1; format: cell-based, human; conditions: HG + LPS, 20 μg/mL, p < 0.0001
Experimental: JC-1 is a widely used and ideal fluorescent probe for detecting MMP. When the MMP is high, JC-1 accumulates in the matrix of the mitochondria, forming J-aggregates that emit red fluorescence. When the MMP is low, JC-1 cannot accumulate in the mitochondrial matrix, remaining as a monomer that emits green fluorescence. HUVECs were cultured in well plates containing DMEM at a density of 1 × 10^6 cells/well. Following the indicated treatments, the slides were washed three times with PBS and the cells were incubated with 1 mg/l JC-1 at 37°C for 30 min in the incubator, washed briefly three times with PBS. The fluorescence was measured over the entire field of vision using a fluorescent microscope connected to an inverted fluorescence microscope (ThermoFish EVOS, United States). The experiment was repeated three times.

HUVECs [8] = assay: MDA, thiobarbituric acid method; format: cell-based, human; conditions: HUVEC supernatant, HG + LPS (HG + LPS increased by 1.65 times); n = 3
Experimental: The level of MDA was determined by the thiobarbituric acid (TBA) method. Briefly, 100 μL of cell supernatant was mixed with 200 μL of a 10% trichloroacetic acid solution of 0.67% TBA. The mixture was incubated at 95°C for 30 min, cooled on ice, and centrifuged at 12,000 × g at 4°C for 10 min. The absorbance of the supernatant was measured at 532 nm using an enzyme-labeled instrument. The experiments were repeated three times.

Myristoyl-SSRRKPCKGWLCKLKLRGGYTLIGSATNLNRPTYVRAGGGDRVYIHP (cysteines drawn unpaired) [MYR-DM-ANG1-7]
hemolysis rate of red blood cells ([1]; 128 μg/mL): 6.01% | hemolysis rate of red blood cells ([1]; 8-64 μg/mL): less than 5% | number of cells passing through the chamber (Transwell) (HUVECs [2]): increased | expression of membrane receptor MasR ([3]; after HG treatment and drug treatment): significantly increased | phosphorylation level of eNOS ([3]; pretreatment then HG + LPS): increased | phosphorylation level of AKT (p-AKT/total AKT) ([3]; pretreatment then HG + LPS (HG + LPS 0.4-fold), n = 3): 0.94 fold | phosphorylation level of PI3K (p-PI3K/total PI3K) ([3]; pretreatment then HG + LPS (HG + LPS 0.8-fold), n = 3): 1.28 fold | TNF-α level (HUVECs [4]): alleviate the decrease | cell survival rate, HSF [5]: 95.16% | cell survival rate, HaCaT [6]: 92.4% | mitochondrial membrane potential (JC-1) (HUVECs [7]): increase | secretion of MDA, decreased by (HUVECs [8]): 0.51 times
